Experimental data as given in the NIST ThermoML archive (doi:10.1021/acs.jced.5b00242).
± gives the expanded uncertainty stated by the source.

Legend:
[1] = xn = mol fraction of the nth substance listed; conditions: 101 kPa, Liquid, x1 = 1; for viscosity: Stabinger Viscometer; for mass density: Vibrating tube method
[2] = refractive index (Na D-line) (dimensionless); xn = mol fraction of the nth substance listed; conditions: 101 kPa, Liquid, Standard Abbe refractometry, x1 = 1

SMILES | viscosity ([1]; 293.15 K) [mPa·s] | mass density ([1]; 293.15 K) [kg/m3] | viscosity ([1]; 298.15 K) [mPa·s] | mass density ([1]; 298.15 K) [kg/m3] | viscosity ([1]; 303.15 K) [mPa·s] | mass density ([1]; 303.15 K) [kg/m3] | viscosity ([1]; 308.15 K) [mPa·s] | mass density ([1]; 308.15 K) [kg/m3] | viscosity ([1]; 313.15 K) [mPa·s] | mass density ([1]; 313.15 K) [kg/m3] | viscosity ([1]; 318.15 K) [mPa·s] | mass density ([1]; 318.15 K) [kg/m3] | viscosity ([1]; 323.15 K) [mPa·s] | mass density ([1]; 323.15 K) [kg/m3] | viscosity ([1]; 328.15 K) [mPa·s] | mass density ([1]; 328.15 K) [kg/m3] | viscosity ([1]; 333.15 K) [mPa·s] | mass density ([1]; 333.15 K) [kg/m3] | viscosity ([1]; 338.15 K) [mPa·s] | mass density ([1]; 338.15 K) [kg/m3] | further results
CCn1cc[n+](C)c1.N#C[C-](C#N)C#N [1-ethyl-3-methyl-1H-imidazolium tricyanomethanide] + CCn1cc[n+](C)c1.O=C([O-])[C@@H]1CCCN1 | 16.62 ± 0.7 | 1084.6 ± 11 | 14.19 ± 0.6 | 1081 ± 11 | 12.18 ± 0.51 | 1077.5 ± 11 | 10.58 ± 0.44 | 1073.9 ± 11 | 9.02 ± 0.38 | 1070.4 ± 11 | 8.2 ± 0.34 | 1067.1 ± 11 | 7.31 ± 0.31 | 1063.7 ± 11 | 6.56 ± 0.28 | 1060.3 ± 11 | 5.72 ± 0.24 | 1056.9 ± 11 | 5.38 ± 0.23 | 1053.6 ± 11 | viscosity ([1]; 343.15 K): 4.91 ± 0.21 mPa·s; mass density ([1]; 343.15 K): 1050.2 ± 10 kg/m3; viscosity ([1]; 348.15 K): 4.5 ± 0.19 mPa·s; mass density ([1]; 348.15 K): 1046.8 ± 10 kg/m3; viscosity ([1]; 353.15 K): 3.98 ± 0.17 mPa·s; mass density ([1]; 353.15 K): 1043.4 ± 10 kg/m3; refractive index ([2]; 293.15 K): 1.51454 ± 0.00063; refractive index ([2]; 298.15 K): 1.51286 ± 0.00063; refractive index ([2]; 303.15 K): 1.51114 ± 0.00063; refractive index ([2]; 308.15 K): 1.50938 ± 0.00063; refractive index ([2]; 313.15 K): 1.50765 ± 0.00063; refractive index ([2]; 318.15 K): 1.50595 ± 0.00063; refractive index ([2]; 323.15 K): 1.50419 ± 0.00063; refractive index ([2]; 328.15 K): 1.50255 ± 0.00063; refractive index ([2]; 333.15 K): 1.50087 ± 0.00063; refractive index ([2]; 338.15 K): 1.49921 ± 0.00063; refractive index ([2]; 343.15 K): 1.49757 ± 0.00063; refractive index ([2]; 348.15 K): 1.49593 ± 0.00063; refractive index ([2]; 353.15 K): 1.49429 ± 0.00063
CCn1cc[n+](C)c1.N#C[C-](C#N)C#N [1-ethyl-3-methyl-1H-imidazolium tricyanomethanide] + CCn1cc[n+](C)c1.NCCS(=O)(=O)[O-] | 16.62 ± 0.7 | 1084.6 ± 15 | 14.19 ± 0.6 | 1081 ± 15 | 12.18 ± 0.51 | 1077.5 ± 15 | 10.58 ± 0.44 | 1073.9 ± 15 | 9.02 ± 0.38 | 1070.4 ± 15 | 8.2 ± 0.34 | 1067.1 ± 15 | 7.31 ± 0.31 | 1063.7 ± 15 | 6.56 ± 0.28 | 1060.3 ± 15 | 5.72 ± 0.24 | 1056.9 ± 15 | 5.38 ± 0.23 | 1053.6 ± 15 | viscosity ([1]; 343.15 K): 4.91 ± 0.21 mPa·s; mass density ([1]; 343.15 K): 1050.2 ± 15 kg/m3; viscosity ([1]; 348.15 K): 4.5 ± 0.19 mPa·s; mass density ([1]; 348.15 K): 1046.8 ± 15 kg/m3; viscosity ([1]; 353.15 K): 3.98 ± 0.17 mPa·s; mass density ([1]; 353.15 K): 1043.4 ± 15 kg/m3; refractive index ([2]; 293.15 K): 1.51454 ± 0.00063; refractive index ([2]; 298.15 K): 1.51286 ± 0.00063; refractive index ([2]; 303.15 K): 1.51114 ± 0.00063; refractive index ([2]; 308.15 K): 1.50938 ± 0.00063; refractive index ([2]; 313.15 K): 1.50765 ± 0.00063; refractive index ([2]; 318.15 K): 1.50595 ± 0.00063; refractive index ([2]; 323.15 K): 1.50419 ± 0.00063; refractive index ([2]; 328.15 K): 1.50255 ± 0.00063; refractive index ([2]; 333.15 K): 1.50087 ± 0.00063; refractive index ([2]; 338.15 K): 1.49921 ± 0.00063; refractive index ([2]; 343.15 K): 1.49757 ± 0.00063; refractive index ([2]; 348.15 K): 1.49593 ± 0.00063; refractive index ([2]; 353.15 K): 1.49429 ± 0.00063
CCn1cc[n+](C)c1.N#C[C-](C#N)C#N [1-ethyl-3-methyl-1H-imidazolium tricyanomethanide] + CC[n+]1ccn(C)c1.N[C@@H](CO)C(=O)[O-] | 16.62 ± 0.7 | 1084.6 ± 15 | 14.19 ± 0.6 | 1081 ± 15 | 12.18 ± 0.51 | 1077.5 ± 15 | 10.58 ± 0.44 | 1073.9 ± 15 | 9.02 ± 0.38 | 1070.4 ± 15 | 8.2 ± 0.34 | 1067.1 ± 15 | 7.31 ± 0.31 | 1063.7 ± 15 | 6.56 ± 0.28 | 1060.3 ± 15 | 5.72 ± 0.24 | 1056.9 ± 15 | 5.38 ± 0.23 | 1053.6 ± 15 | viscosity ([1]; 343.15 K): 4.91 ± 0.21 mPa·s; mass density ([1]; 343.15 K): 1050.2 ± 15 kg/m3; viscosity ([1]; 348.15 K): 4.5 ± 0.19 mPa·s; mass density ([1]; 348.15 K): 1046.8 ± 15 kg/m3; viscosity ([1]; 353.15 K): 3.98 ± 0.17 mPa·s; mass density ([1]; 353.15 K): 1043.4 ± 15 kg/m3; refractive index ([2]; 293.15 K): 1.51454 ± 0.00063; refractive index ([2]; 298.15 K): 1.51286 ± 0.00063; refractive index ([2]; 303.15 K): 1.51114 ± 0.00063; refractive index ([2]; 308.15 K): 1.50938 ± 0.00063; refractive index ([2]; 313.15 K): 1.50765 ± 0.00063; refractive index ([2]; 318.15 K): 1.50595 ± 0.00063; refractive index ([2]; 323.15 K): 1.50419 ± 0.00063; refractive index ([2]; 328.15 K): 1.50255 ± 0.00063; refractive index ([2]; 333.15 K): 1.50087 ± 0.00063; refractive index ([2]; 338.15 K): 1.49921 ± 0.00063; refractive index ([2]; 343.15 K): 1.49757 ± 0.00063; refractive index ([2]; 348.15 K): 1.49593 ± 0.00063; refractive index ([2]; 353.15 K): 1.49429 ± 0.00063
